Test results: publication PMC11277476, “Synthesis and Biological Evaluation of Novel 2-Aroyl Benzofuran-Based Hydroxamic Acids as Antimicrotubule Agents” (International Journal of Molecular Sciences, 2024)

Legend:
MDA-MB-231 cells = test: In vitro growth inhibition (resazurin, 72 h), MDA-MB-231; format: cell-based; conditions: Homo sapiens, mean ± SE
human recombinant HDAC8 = target: T1, human recombinant HDAC8 (Homo sapiens, UniProt Q9BY41); test: HDAC isoform inhibition, fluorogenic substrate, HDAC8; format: biochemical; conditions: mean ± SE, read-out: IC50 (µM) hHDAC8
T1 construct: purchased BPS Bioscience 50008
T1 sequence (Q9BY41 1-377): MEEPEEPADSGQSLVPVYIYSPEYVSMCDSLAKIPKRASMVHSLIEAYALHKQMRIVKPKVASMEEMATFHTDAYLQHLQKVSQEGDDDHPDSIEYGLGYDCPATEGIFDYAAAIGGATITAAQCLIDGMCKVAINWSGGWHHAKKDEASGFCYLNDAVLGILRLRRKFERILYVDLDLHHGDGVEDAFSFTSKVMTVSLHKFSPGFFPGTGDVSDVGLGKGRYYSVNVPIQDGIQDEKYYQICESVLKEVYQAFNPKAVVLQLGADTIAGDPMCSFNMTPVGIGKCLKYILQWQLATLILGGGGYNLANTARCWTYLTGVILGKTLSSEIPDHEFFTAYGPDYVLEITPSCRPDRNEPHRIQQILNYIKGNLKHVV
Experimental: (§1) Further experiments were also carried out to evaluate the inhibitory activities of test compounds on selected HDAC isoforms. […] Following an incubation of 15 min at RT, fluorescence was measured in an EnSight multimodal plate reader (PerkinElmer, Boston, MA, USA) with an excitation wavelength of 360 nm and an emission wavelength of 450 nm.

[1] = system: panel of five human cancer cell lines (HeLa, MDA-MB-231, A549, HT-29, MCF-7); test: In vitro growth inhibition, range over the panel of five cancer cell lines; conditions: for IC50: read-out: IC50 values, range over the cancer cell line panel; for GI50: read-out: antiproliferative GI50 values, range over the five tumor lines
Experimental: All the cell lines were purchased from the American Type Culture Collection (ATCC, Manassas, VA, USA). Drug stock solutions were prepared for each compound by dissolving them in DMSO at 10 mM.
Cancer cells were seeded in tissue treated, flat bottom, 384-well plates (Corning, Corning, NY, USA) according to their optimal density, in 27 μL of complete medium per well, using a Microlab STAR 96-CORE liquid handling system (Hamilton Bonaduz, Bonaduz, Switzerland) as described previously [75]. Each compound was tested in a 6-points 2-fold dose–response curve, and each dose was tested in duplicate within each plate, in three independent experiments. The final concentration of DMSO in the wells never exceeded 0.1%, which was the maximum concentration.
Only plates with acceptable Z-prime quality metrics (Z′ > 0.6) were further analyzed for the drug screening. Raw data were normalized according to the following equation: cell viability (%) = (x − POS)/(NEG − POS) × 100, where x is the relative fluorescence units (RFU) collected from each single well, NEG is the mean of intraplate negative controls (DMSO, corresponding to 100% cell viability), and POS is the mean of intraplate positive controls (Bortezomib 1 μΜ, equal to 0% cell viability).

HT-29 cells [2] = test: In vitro growth inhibition (resazurin, 72 h), HT-29; format: cell-based; conditions: Homo sapiens, mean ± SE
MCF-7 cells = test: In vitro growth inhibition (resazurin, 72 h), MCF-7; format: cell-based; conditions: Homo sapiens, MCF7, mean ± SE
A549 cells = test: In vitro growth inhibition (resazurin, 72 h), A549; format: cell-based; conditions: Homo sapiens, mean ± SE
HeLa cells = test: In vitro growth inhibition (resazurin, 72 h), HeLa; format: cell-based; conditions: Homo sapiens, concentration inhibiting tumor cell proliferation by 50%, mean ± SE
bovine brain tubulin = test: Inhibition of tubulin polymerization (turbidimetric); format: biochemical; conditions: tubulin at 10 μM; 20 min incubation at 30 °C; read-out: Tubulin Assembly IC50 ± SD
Experimental: (§2) Bovine brain tubulin was purified as described previously. To evaluate the effects of the compounds on tubulin assembly in vitro [77], varying concentrations were preincubated with 10 μM tubulin in 0.8 M monosodium glutamate (pH 6.6) at 30 °C, and the reaction mixtures were then cooled to 0 °C. After addition of GTP, the mixtures were transferred to 0 °C cuvettes in Beckman Coulter (Brea, CA, USA) DU-7400/DU-7500 recording spectrophotometers equipped with electronic temperature controllers and were warmed to 30 °C, and the assembly of tubulin was observed turbidimetrically. […] Inhibition of colchicine binding to tubulin was measured as described before, except that the reaction mixtures contained 0.5 μM tubulin and 5 μM each of [^3H]colchicine and test compound. Only one DEAE-cellulose filter was used per sample, and filtration was via gravity.

[3] = system: tubulin (colchicine site); test: Inhibition of [3H]colchicine binding to tubulin; design: species or system bovine; conditions: tubulin 0.5 µM, [3H]colchicine 5 µM, tested compound 5 µM
Experimental: as §2

human recombinant HDAC6 = target: T2, human recombinant HDAC6 (Homo sapiens, UniProt Q9UBN7); test: HDAC isoform inhibition, fluorogenic substrate, HDAC6; format: biochemical; conditions: mean ± SE, read-out: IC50 (µM) hHDAC6
T2 construct: purchased BPS Bioscience 50056
T2 sequence (Q9UBN7 1-1215): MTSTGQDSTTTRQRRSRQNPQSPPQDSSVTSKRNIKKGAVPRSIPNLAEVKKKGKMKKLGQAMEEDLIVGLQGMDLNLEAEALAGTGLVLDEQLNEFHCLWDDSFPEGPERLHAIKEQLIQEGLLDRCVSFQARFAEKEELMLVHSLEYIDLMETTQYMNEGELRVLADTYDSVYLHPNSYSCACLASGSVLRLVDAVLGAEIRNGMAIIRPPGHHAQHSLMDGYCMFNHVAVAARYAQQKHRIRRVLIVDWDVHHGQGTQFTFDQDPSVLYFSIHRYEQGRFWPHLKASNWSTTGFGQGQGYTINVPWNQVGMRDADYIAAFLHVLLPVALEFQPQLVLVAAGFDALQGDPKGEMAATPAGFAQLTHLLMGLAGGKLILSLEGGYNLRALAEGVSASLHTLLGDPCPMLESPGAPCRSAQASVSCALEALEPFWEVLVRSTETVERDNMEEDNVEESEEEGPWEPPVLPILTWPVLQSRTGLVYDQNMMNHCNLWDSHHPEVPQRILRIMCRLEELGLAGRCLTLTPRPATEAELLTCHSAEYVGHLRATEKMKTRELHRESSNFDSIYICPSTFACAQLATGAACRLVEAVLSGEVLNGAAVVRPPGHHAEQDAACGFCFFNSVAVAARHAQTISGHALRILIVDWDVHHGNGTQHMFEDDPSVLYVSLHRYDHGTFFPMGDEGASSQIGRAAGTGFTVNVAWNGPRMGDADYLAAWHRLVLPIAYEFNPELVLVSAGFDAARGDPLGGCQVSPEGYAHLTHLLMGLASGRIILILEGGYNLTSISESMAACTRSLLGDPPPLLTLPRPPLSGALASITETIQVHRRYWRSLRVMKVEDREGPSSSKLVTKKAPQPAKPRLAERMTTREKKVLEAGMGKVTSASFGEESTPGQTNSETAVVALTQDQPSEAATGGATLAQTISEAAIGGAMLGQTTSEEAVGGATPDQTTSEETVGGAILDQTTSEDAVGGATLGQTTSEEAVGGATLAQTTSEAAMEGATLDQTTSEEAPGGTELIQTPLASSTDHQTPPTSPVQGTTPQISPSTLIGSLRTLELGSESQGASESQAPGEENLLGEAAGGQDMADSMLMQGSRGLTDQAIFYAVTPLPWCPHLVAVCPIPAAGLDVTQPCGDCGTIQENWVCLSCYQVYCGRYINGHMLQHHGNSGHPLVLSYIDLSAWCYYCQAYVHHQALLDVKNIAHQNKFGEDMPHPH
Experimental: as §1

human recombinant HDAC10 = target: T3, human recombinant HDAC10 (Homo sapiens, UniProt Q969S8); test: HDAC isoform inhibition, fluorogenic substrate, HDAC10; format: biochemical; conditions: mean ± SE, read-out: IC50 (µM) hHDAC10
T3 construct: purchased BPS Bioscience 50060
T3 sequence (Q969S8 1-669): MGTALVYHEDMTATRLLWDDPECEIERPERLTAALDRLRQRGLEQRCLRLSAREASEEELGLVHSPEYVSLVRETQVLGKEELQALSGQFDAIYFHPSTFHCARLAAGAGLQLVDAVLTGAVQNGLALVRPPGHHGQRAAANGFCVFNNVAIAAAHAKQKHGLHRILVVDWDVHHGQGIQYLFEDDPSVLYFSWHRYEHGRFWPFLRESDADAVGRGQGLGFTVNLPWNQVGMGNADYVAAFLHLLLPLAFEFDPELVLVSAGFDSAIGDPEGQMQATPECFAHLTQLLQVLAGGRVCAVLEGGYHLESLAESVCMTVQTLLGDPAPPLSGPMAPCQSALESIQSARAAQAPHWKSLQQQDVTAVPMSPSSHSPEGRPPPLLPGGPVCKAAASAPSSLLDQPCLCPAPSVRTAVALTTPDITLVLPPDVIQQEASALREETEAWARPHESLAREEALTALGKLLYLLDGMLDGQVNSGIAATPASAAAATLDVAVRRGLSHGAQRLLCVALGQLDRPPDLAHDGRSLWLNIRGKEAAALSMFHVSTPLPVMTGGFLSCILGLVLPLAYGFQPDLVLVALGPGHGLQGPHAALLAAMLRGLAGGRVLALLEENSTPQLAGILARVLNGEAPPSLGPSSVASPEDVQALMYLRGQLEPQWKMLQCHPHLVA
Experimental: as §1

human recombinant HDAC1 = target: T4, human recombinant HDAC1 (Homo sapiens, UniProt Q13547); test: HDAC isoform inhibition, fluorogenic substrate, HDAC1; format: biochemical; conditions: mean ± SE, read-out: IC50 (µM) hHDAC1
T4 construct: purchased BPS Bioscience 50051
T4 sequence (Q13547 whole entry, canonical isoform): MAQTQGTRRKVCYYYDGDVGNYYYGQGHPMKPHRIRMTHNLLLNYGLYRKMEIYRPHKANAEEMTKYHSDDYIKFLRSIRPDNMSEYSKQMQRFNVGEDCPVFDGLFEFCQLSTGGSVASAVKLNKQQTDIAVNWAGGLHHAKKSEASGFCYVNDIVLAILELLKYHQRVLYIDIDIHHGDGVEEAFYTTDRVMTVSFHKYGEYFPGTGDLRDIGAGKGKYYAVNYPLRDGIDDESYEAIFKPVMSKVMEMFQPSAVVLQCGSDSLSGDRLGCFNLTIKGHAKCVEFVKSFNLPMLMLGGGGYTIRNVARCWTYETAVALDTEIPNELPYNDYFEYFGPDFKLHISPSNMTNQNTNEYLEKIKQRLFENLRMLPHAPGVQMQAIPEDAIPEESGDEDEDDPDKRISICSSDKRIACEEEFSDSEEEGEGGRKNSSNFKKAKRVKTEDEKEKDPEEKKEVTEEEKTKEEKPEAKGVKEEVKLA
Experimental: as §1

[4] = system: acetylated histone H3 (Ac-H3K9) in HT-29 cells; test: Western blot of acetylated histone H3 (Ac-H3K9) in HT-29 cells; format: cell-based, human; conditions: 10 µM, 6 h
Experimental: HT-29 cells were treated with selected compounds for 6 h at 10 µM, lysed, and then processed as previously described.
Antibodies directed against total histone H3 and its acetylated form (Ac-H3K9) were purchased from Cell Signaling Technology, Danvers, Massachusetts, while anti-vinculin antibody was purchased from Santa Cruz Biotechnology. Membranes were visualized using ECL select (GE Healthcare), and images were acquired using the iBright FL1500 Imaging System (Thermo Fisher Scientific, Waltham, MA, USA). Anti-vinculin (1:25,000, Santa Cruz Biotechnology, Dallas, TX, USA) was used as loading controls.

HT-29 cells [5] = test: Annexin V-PI flow cytometric analysis of apoptosis, HT-29; format: cell-based, human; conditions: 96 h
Experimental: The quantification of apoptosis induced by the test compounds was carried out with flow cytometric analysis using the Annexin-V Fluos kit (Roche Diagnostics, Milan, Italy) following the manufacturer’s instructions. Cancer cells treated with the test compounds for the indicated time points and concentrations were then labeled with annexin V/FITC and PI and analyzed with BD FACS Celesta^TM Flow Cytometer (BD Bioscience, Franklin Lakes, NJ, USA) using the FL1 and FL3 channel, respectively, and FlowJo_v10.7.1 software.

HT-29 cells [6] = test: Cell cycle analysis (PI, flow cytometry); format: cell-based, human; conditions: 250 nM for 24 h (figure legend)
Experimental: HT29 cells were treated with the indicated compounds for 24 h and then harvested and fixed in 70% ice-cold ethanol for 24 h. The cells were next treated with a 0.1% v/v solution of Triton X-100 in phosphate buffered saline (PBS) containing 10 μg/mL RNAse A and 20 μg/mL PI. The cells were incubated at room temperature for 30 min and then analyzed on a BD FACS Celesta^TM Flow Cytometer (BD Bioscience, Franklin Lakes, NJ, USA) in the FL3 channel. DNA histograms were analyzed using FlowJo_v10.7.1 software (BD Bioscience, Franklin Lakes, NJ, USA).

COc1cc2oc(C(=O)c3cc(OC)c(OC)c(OC)c3)c(C)c2cc1/C=C/C(=O)NO [Compound 6a, (E)-N-Hydroxy-3-(6-methoxy-3-methyl-2-(3,4,5-trimethoxybenzoyl)benzofuran-5-yl)acrylamide]
IC50 (MDA-MB-231 cells): 5 ± 0.04 nM
IC50 (human recombinant HDAC8): > 30 µM
IC50 [1]: 5 to 23 nM
GI50 [1]: 5 to 23 nM
IC50 (HT-29 cells [2]): 7.5 ± 0.11 nM
IC50 (MCF-7 cells): 7 ± 0.2 nM
IC50 (A549 cells): 23.5 ± 0.24 nM
IC50 (HeLa cells): 5.2 ± 0.03 nM

COc1cc(OC)cc(C(=O)c2oc3cc(OC)c(/C=C/C(=O)NO)cc3c2C)c1 [Compound 6c, (E)-3-(2-(3,5-Dimethoxybenzoyl)-6-methoxy-3-methylbenzofuran-5-yl)-N-hydroxyacrylamide]
IC50 (MDA-MB-231 cells): 26.9 ± 1.74 nM
IC50 (bovine brain tubulin): 420 ± 70 nM
IC50 (human recombinant HDAC8): > 30 µM
GI50 [1]: 4 to 44 nM
Colchicine Binding % Inhibition ± SD [3]: 81 ± 4%
IC50 (HT-29 cells [2]): 29 ± 0.01 nM
IC50 (human recombinant HDAC6): 12.5 ± 0.8 µM
IC50 (MCF-7 cells): 19 ± 1 nM
IC50 (human recombinant HDAC10): > 30 µM
IC50 (human recombinant HDAC1): > 30 µM
IC50 (A549 cells): 43.9 ± 0.55 nM
melting point: 170 to 172 °C
IC50 (HeLa cells): 4 ± 0.01 nM

COc1cccc(C(=O)c2oc3cc(OC)c(/C=C/C(=O)NO)cc3c2C)c1 [Compound 6e, (E)-N-Hydroxy-3-(6-methoxy-2-(3-methoxybenzoyl)-3-methylbenzofuran-5-yl)acrylamide]
IC50 (MDA-MB-231 cells): 44.7 ± 3.12 nM
IC50 (bovine brain tubulin): 1100 ± 100 nM
IC50 (human recombinant HDAC8): > 30 µM
Colchicine Binding % Inhibition ± SD [3]: 86 ± 1%
IC50 (HT-29 cells [2]): 7.9 ± 0.02 nM
IC50 (human recombinant HDAC6): 17.1 ± 1.2 µM
IC50 (MCF-7 cells): 33 ± 6 nM
IC50 (human recombinant HDAC10): > 30 µM
IC50 (human recombinant HDAC1): 13.4 ± 0.9 µM
IC50 (A549 cells): 54.2 ± 2.03 nM
melting point: 100 to 102 °C
IC50 (HeLa cells): 6 ± 0.05 nM

COc1ccc2c(C)c(C(=O)c3cc(OC)c(OC)c(OC)c3)oc2c1 [TR187, 2-(3′,4′,5′-trimethoxybenzoyl)-3-methyl-6-methoxy benzofuran, reference compound]
IC50 (MDA-MB-231 cells): 3.1 ± 0.01 nM
IC50 (bovine brain tubulin): 620 nM
IC50 [1]: 3 to 72 nM
IC50 (HT-29 cells [2]): 35.2 ± 0.82 nM
IC50 (MCF-7 cells): 72 ± 4 nM
IC50 (A549 cells): 24 ± 0.44 nM
acetylated histone H3 (Ac-H3K9) level, Western blot [4]: does not show any inhibitory activity towards HDAC even at the cellular level
IC50 (HeLa cells): 8.5 ± 0.11 nM

CC(/C=C/C(=O)NO)=C\[C@@H](C)C(=O)c1ccc(N(C)C)cc1 [TSA, Trichostatin, reference compound]
induction of apoptosis / cell death (annexin V/PI), in words (HT-29 cells [5]): sensitive only to the higher dose
Percentage of HT-29 cells in G1 phase (HT-29 cells [6]): 43.90%
Percentage of HT-29 cells in G2/M phase (HT-29 cells [6]): 38.65%
Percentage of HT-29 cells in S phase (HT-29 cells [6]): 17.44%
